Measurements as given in patent US20100173888A1 (Pfizer Inc, priority 2008, published 2010).
Counter-ions that a name gives are not always drawn.

molecular target: human recombinant H-PGDS (Homo sapiens, UniProt O60760); test: Fluorescence intensity h-PGDS TBA enzyme assay (PGH2 depletion, MDA/TBA fluorescence); format: biochemical; conditions: 1:175,000 human recombinant H-PGDS, 42 second reaction, 3-fold serial dilutions, highest concentration typically 1 μM
Protocol: Fluoresecence Intensity h-PGDSTBA Enzyme Assay
Prostaglandin D Synthase (PGDS) converts the substrate prostaglandin H2 (PGH2) to prostaglandin D2. The depletion of PGH2 was measured via an Fe(II) reduction of the remaining PGH2 to malondialdehyde (MDA) and 12-HHT. The enzyme assay is based on the quantitative formation of a fluorescent complex from the non-fluorescent compounds MDA and 2-thiobarbituric acid (TBA), substantially as described in U.S. patent application publication US-2004/152148 by Lombardt.
The enzyme assay (31 μls) contained 100 mM Tris base pH 8.0, 100 μM MgCl2, 0.1 mg/ml IgG Rabbit serum, 5.0 μM PGH2 (Cayman; ethanol solution, #17020), 2.5 mM L-Glutathione (Sigma; reduced form. #G4251), 1:175,000 human recombinant H-PGDS (from 1 mg/ml), 0.5% DMSO and inhibitor (varying concentration). Three μls of diluted inhibitor (dissolved in DMSO) was plated into a 384-well assay plate followed by a 25 μl addition of an enzyme solution containing h-PGDS, Tris, MgCl2, IgG and L-Glutathione. After preincubation of inhibitor and enzyme solution for 10 minutes at room temperature, the reaction was initiated with a 3 μl addition of substrate solution in 10 mM HCl. The reaction was terminated after 42 second by the addition (3 μl) of stop buffer containing FeCl2 and citric acid. After addition of 45.5 μls of TBA plates were heated for one hour in a 70° C. oven. Plates were cooled at room temperature overnight and read on a plate reader the next day with excitation @ 530 nm and emission @ 565 nm.
IC50' s of inhibitors were calculated with a 4-parameter fit using 11 inhibitor concentrations in duplicate with 3-fold serial dilutions. Controls on each plate included no inhibitor (zero % effect) and an inhibitor 10-fold in excess of its' IC50 (100% effect). The highest inhibitor concentration tested was typically 1 μM.

human recombinant H-PGDS, sequence (O60760 whole entry): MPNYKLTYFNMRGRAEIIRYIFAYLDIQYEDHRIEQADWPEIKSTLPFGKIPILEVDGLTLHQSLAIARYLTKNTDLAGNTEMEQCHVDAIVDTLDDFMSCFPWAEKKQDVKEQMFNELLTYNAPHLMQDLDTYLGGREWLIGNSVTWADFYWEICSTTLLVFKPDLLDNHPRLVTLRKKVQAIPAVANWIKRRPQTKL

| Compound | IC50 |
| --- | --- |
| 6-(3-Fluorophenyl)-N-(cis-2-hydroxy-2,3-dihydro-1H-inden-1yl]nicotinamide [Example 130] | 15.2 nM |
| O=C(NC1CCC(O)(C(F)(F)F)CC1)c1ccc(-c2cccc(F)c2)nc1 (mixture of isomers) [Example 151, 6-(3-Fluorophenyl)-N-(trans 4-hydroxy-4-trifluoromethylcyclohexyl)nicotinamide and 6-(3-Fluorophenyl)-N-(cis 4-hydroxy-4-trifluoromethylcyclohexyl)nicotinamide] | 10.3 nM |
| CCN1CCC(CNC(=O)[C@H]2CC[C@H](NC(=O)c3ccc(-c4cccc(F)c4)nc3)CC2)C1 (relative stereo) [Example 113F, N-(trans-4-{[(1-ethylpyrrolidin-3-yl)methyl]carbamoyl}cyclohexyl)-6-(3-fluorophenyl)nicotinamide] | 60 nM |
| O=C(N[C@H]1CC[C@@H](O)C1)c1ccc(-c2cccc(F)c2)nc1 (relative stereo) [Example 158, 6-(3-fluorophenyl)-N-[cis-3-hydroxycyclopentyl]nicotinamide] | 68.9 nM |
| CN1CCN(CC(=O)N[C@@H]2CCC[C@H](NC(=O)c3ccc(-c4cccc(F)c4)nc3)C2)CC1 (relative stereo) [Example 204] | 68.7 nM |
| CN1CCCCC1C(=O)N[C@H]1CC[C@@H](NC(=O)c2ccc(-c3cccc(F)c3)nc2)CC1 (relative stereo) [Example 217, 6-(3-fluorophenyl)-N-(cis-4-{[(1-methylpiperidin-2-yl)carbonyl]amino}cyclohexyl)nicotinamide] | 67.1 nM |
| CN1CCCC(C(=O)N[C@H]2CC[C@@H](NC(=O)c3ccc(-c4cccc(F)c4)nc3)CC2)C1 (relative stereo) [Example 219, 6-(3-fluorophenyl)-N-(cis-4-{[(1-methylpiperidin-3-yl)carbonyl]amino}cyclohexyl)nicotinamide] | 32.7 nM |
| CC(O)C(=O)N[C@H]1CC[C@@H](NC(=O)c2ccc(-c3cccc(F)c3)nc2)CC1 (relative stereo) [Example 222, 6-(3-fluorophenyl)-N-[cis-4-(lactoylamino)cyclohexyl]nicotinamide] | 50.8 nM |
| C[C@]1(C(=O)O)CCC[C@@H](NC(=O)c2ccc(-c3cccc(F)c3)nc2)C1 (relative stereo) [Example 231, (1S*,3R*)-3-({[6-(3-Fluorophenyl)pyridin-3-yl]carbonyl}amino)-1-methylcyclohexane carboxylic acid] | 13.8 nM |
| CCN1CCN(C(=O)[C@@]2(C)CCC[C@@H](NC(=O)c3ccc(-c4cccc(F)c4)nc3)C2)CC1 (relative stereo) [Example 233, N-{(1R*,3S*)-3-[(4-Ethylpiperazin-1-yl)carbonyl]-3-methylcyclohexyl}-6-(3-fluorophenyl)nicotinamide] | 4.1 nM |
| O=C(N[C@@H]1CCC[C@@H](C(=O)N2CCOCC2)C1)c1ccc(-c2cccc(F)c2)nc1 (relative stereo) [Example 241] | 15.4 nM |
| O=C(N[C@@H]1CCC[C@@H](C(=O)N2CCNCC2)C1)c1ccc(-c2cccc(F)c2)nc1 (relative stereo) [Example 243] | 29.1 nM |
| CN1CCN(CC(=O)N[C@H]2CCC[C@H](NC(=O)c3ccc(-c4cccc(F)c4)nc3)C2)CC1 (relative stereo) [Example 247] | 57 nM |

Now from value to compound:

| IC50 | Compound |
| --- | --- |
| 13.7 nM | CNCCNC(=O)[C@H]1CCC[C@@H](NC(=O)c2ccc(-c3cccc(F)c3)nc2)C1 (relative stereo) [Example 189, 6-(3-Fluorophenyl)-N-cis-3-{([2-(methylamino)ethyl]carbamoyl}cyclohexyl]nicotinamide] |
| 29.2 nM | O=C(N[C@@H]1CCC[C@H](C(=O)NC2CCNCC2)C1)c1ccc(-c2cccc(F)c2)nc1 (relative stereo) [Example 191, 6-(3-Fluorophenyl)-N-cis-3-(piperidin-4-ylcarbamoyl)cyclohexyl]nicotinamide hydrochloride] |
| 9.6 nM | CC(C)(CO)NC(=O)[C@H]1CCC[C@@H](NC(=O)c2ccc(-c3cccc(F)c3)nc2)C1 (relative stereo) [Example 196] |
| 19.1 nM | CN(C)C(=O)CNC(=O)[C@H]1CCC[C@@H](NC(=O)c2ccc(-c3cccc(F)c3)nc2)C1 (relative stereo) [Example 198] |
| 21.8 nM | CC(O)[C@H]1CCC[C@@H](NC(=O)c2ccc(-c3cccc(F)c3)nc2)C1 (relative stereo) [Example 199, 6-(3-Fluorophenyl)-N-[(cis)-3-(1-hydroxyethyl)cyclohexyl]nicotinamide] |
| 189 nM | N[C@@H]1CCC[C@H](NC(=O)c2ccc(-c3cccc(F)c3)nc2)C1 (relative stereo) [Example 200, N-[cis-3-Aminocyclohexyl]-6-(3-fluorophenyl)nicotinamide] |
| 17.1 nM | O=C(CO)N[C@@H]1CCC[C@H](NC(=O)c2ccc(-c3cccc(F)c3)nc2)C1 (relative stereo) [Example 202] |
| 17.1 nM | COCC(=O)N[C@@H]1CCC[C@H](NC(=O)c2ccc(-c3cccc(F)c3)nc2)C1 (relative stereo) [Example 203, 6-(3-Fluorophenyl)-N-cis-[3-(2-methoxyacetylamino)cyclohexyl]nicotinamide] |
| 81.1 nM | CS(=O)(=O)N[C@@H]1CCC[C@H](NC(=O)c2ccc(-c3cccc(F)c3)nc2)C1 (relative stereo) [Example 207, 6-(3-Fluoro-phenyl)-N-cis-(3-methanesulfonylamino-cyclohexyl)-nicotinamide] |
| 5.1 nM | CN(C)C(=O)[C@@]1(C)CCC[C@@H](NC(=O)c2ccc(-c3cccc(F)c3)nc2)C1 (relative stereo) [Example 237, N-[(1R*,3S*)-3-(Dimethylcarbamoyl)-3-methylcyclohexyl]-6-(3-fluorophenyl)nicotinamide] |
| 27.4 nM | O=C(N[C@@H]1CCC[C@@H](C(=O)O)C1)c1ccc(-c2cccc(F)c2)nc1 (relative stereo) [Example 238A, trans-3-({[6-(3-Fluorophenyl)pyridin-3-yl]carbonyl}amino)cyclohexanecarboxylic acid] |
| 47.1 nM | CN(C)C(=O)[C@@H]1CCC[C@@H](NC(=O)c2ccc(-c3cccc(F)c3)nc2)C1 (relative stereo) [Example 238] |
| 34.9 nM | O=C(N[C@@H]1CCC[C@@H](C(=O)N2CCCC2)C1)c1ccc(-c2cccc(F)c2)nc1 (relative stereo) [Example 239] |
| 26.5 nM | COCCNC(=O)[C@@H]1CCC[C@@H](NC(=O)c2ccc(-c3cccc(F)c3)nc2)C1 (relative stereo) [Example 240] |
| 19.8 nM | O=C(N[C@@H]1CCC[C@@H](C(=O)NCCCO)C1)c1ccc(-c2cccc(F)c2)nc1 (relative stereo) [Example 242] |
| 192 nM | N[C@H]1CCC[C@H](NC(=O)c2ccc(-c3cccc(F)c3)nc2)C1 (relative stereo) [Example 244, N-[trans-3-Aminocyclohexyl]-6-(3-fluorophenyl)nicotinamide] |
| 21.6 nM | O=C(CO)N[C@H]1CCC[C@H](NC(=O)c2ccc(-c3cccc(F)c3)nc2)C1 (relative stereo) [Example 245] |
| 10.4 nM | CC(C)(O)C(=O)N[C@H]1CCC[C@H](NC(=O)c2ccc(-c3cccc(F)c3)nc2)C1 (relative stereo) [Example 248, 6-(3-Fluorophenyl)-N-trans-[3-(2-hydroxy-2-methylpropionylamino)cyclohexyl]nicotinamide] |
